Measurements published in patent publication US20230280220A1, “Benzimidazole Derivative Compounds and Uses Thereof” (Pfizer Inc., priority 2019, published 2023).

Target: ITK enzyme (ITK FL, N-Flag and C-His tagged) (Homo sapiens (Human), UniProt Q08881)
Assay: ITK enzyme assay (IL-2-inducible T-cell kinase activity)
Format: biochemical
Conditions: geometric mean of count n
Method: IL-2-Inducible T-Cell Kinase (ITK) Activity, IC50 (nM)
ITK activity was determined by measuring the effect of a test compound in an ITK enzyme assay.
1.0 M HEPES Buffer pH 7.5 solution was prepared as follows: 238.3 g HEPES free acid (Sigma) and 800 mL of water were combined, and the mixture was stirred until complete dissolution. The pH was adjusted to 7.5 via titration with 5N NaOH and the volume adjusted to 1000 mL. The solution was filtered and sterilized.
ITK assay buffer was prepared as follows: 50 mL of HPLC-grade water was treated with 2 mL of 1.0 M HEPES Buffer, 500 μL of 2% Gelatin (Sigma), 1.0 mL of aqueous MgCl2 solution (1.0 M), and 1.0 mL of aqueous glutathione solution (0.5 M), and the solution was mixed. The solution was brought to 99 mL in a graduated cylinder by addition of water and sterilized through a 0.2 μm filter. 0.1 mL of Brij-35™ Surfact-Amps™ Detergent Solution (10% w/v aqueous solution, ThermoFisher) and 1.0 mL of ATP (Teknova, 100 mM) were added and the solution was mixed.
The resulting solution was stored on ice. 30 Minutes prior to use, the enzyme solution was removed from ice and equilibrated to RT by incubation in a RT water bath.
Preparation of 4×ITK substrate solution was as follows: 50 mL of ITK assay buffer was treated with 100 μL of BTK peptide (China Peptide Company, 2 mM stock solution in DMSO). The tube was capped, mixed by gently inverting the tube, and then stored on ice. 30 Minutes prior to use, the substrate solution was removed from ice and equilibrated to RT by incubation in a RT water bath.
At the time of assay, 7.5 μL of the 1.33×ITK enzyme solution was added to plate wells containing 0.1 μL of varying concentrations of test compound in DMSO. The plate was incubated 30 min at RT. The plate wells were each treated with 2.5 uL of the 4×ITK substrate solution and the plate was sealed (TopSeal™, Perkin Elmer). The plate was spun at 1000 rpm for 30 sec and then incubated for 60 min at RT. The seal was removed, and each well was treated with 10 μL of Stop/Detect Buffer (20 mM HEPES pH 7.5, 0.01% gelatin, 1 nM LANCE PT66 (Perkin Elmer), 16.5 μg/ml Surelight APC (Perkin Elmer), 10 mM EDTA, 250 mM NaCl). The plate was again covered and was spun at 1000 rpm for 30 seconds. The plate was allowed to incubate overnight at RT and in a closed carrier to reduce dehydration. The seal was removed, and the fluorescence was read with a plate reader with an excitation wavelength of […] and an emission wavelength of 615 nm.

ITK enzyme (ITK FL, N-Flag and C-His tagged), sequence (Q08881 whole entry): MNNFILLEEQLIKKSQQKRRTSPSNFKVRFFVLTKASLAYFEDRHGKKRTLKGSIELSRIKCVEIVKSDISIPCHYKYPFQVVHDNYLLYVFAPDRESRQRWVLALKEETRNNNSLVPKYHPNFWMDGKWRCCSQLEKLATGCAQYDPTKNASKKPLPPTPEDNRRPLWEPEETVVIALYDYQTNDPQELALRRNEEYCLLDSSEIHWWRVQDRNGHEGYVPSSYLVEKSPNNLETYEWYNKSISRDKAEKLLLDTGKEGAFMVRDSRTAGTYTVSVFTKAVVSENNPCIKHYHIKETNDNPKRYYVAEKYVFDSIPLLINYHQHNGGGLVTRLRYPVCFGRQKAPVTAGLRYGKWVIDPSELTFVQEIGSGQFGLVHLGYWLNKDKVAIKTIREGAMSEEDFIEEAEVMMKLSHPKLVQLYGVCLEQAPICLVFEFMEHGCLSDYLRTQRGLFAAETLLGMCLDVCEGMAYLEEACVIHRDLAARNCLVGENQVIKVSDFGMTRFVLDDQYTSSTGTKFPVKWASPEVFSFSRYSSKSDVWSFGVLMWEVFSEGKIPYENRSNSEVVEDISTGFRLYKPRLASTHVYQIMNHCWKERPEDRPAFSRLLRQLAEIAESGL

SMILES | IC50 [nM]
Cc1cc2[nH]c(-c3n[nH]c4c3C[C@@H]3C[C@]3(C)C4)nc2cc1N(C)C(=O)CN1C[C@@H](C)O[C@H](C)C1 [Example 32, 2-((2R,6R)-2,6-Dimethylmorpholino)-N-methyl-N-(6-methyl-2-((4aS,5aR)-5a-methyl-1,4,4a,5,5a,6-hexahydrocyclopropa[f]indazol-3-yl)-1H-benzo[d]imidazol-5-yl)acetamide] | 16
Cc1cc2[nH]c(-c3n[nH]c4c3C[C@@H]3C[C@]3(C)C4)nc2cc1N(C)C(=O)CN1C[C@H](C)O[C@@H](C)C1 [Example 33, 2-((2S,6S)-2,6-Dimethylmorpholino)-N-methyl-N-(6-methyl-2-((4aS,5aR)-5a-methyl-1,4,4a,5,5a,6-hexahydrocyclopropa[f]indazol-3-yl)-1H-benzo[d]imidazol-5-yl)acetamide] | 11
Cc1cc2[nH]c(-c3n[nH]c4c3C[C@@H]3C[C@]3(C)C4)nc2cc1N(C)C(=O)CN1CCOCC1 [Example 34, N-Methyl-N-(6-methyl-2-((4aS,5aR)-5a-methyl-1,4,4a,5,5a,6-hexahydrocyclopropa[f]indazol-3-yl)-1H-benzo[d]imidazol-5-yl)-2-morpholinoacetamide] | 10
Cc1cc2[nH]c(-c3n[nH]c4c3C[C@@H]3C[C@]3(C)C4)nc2cc1N(C)C(=O)CC1CCOCC1 [Example 35, N-Methyl-N-(6-methyl-2-((4aS,5aR)-5a-methyl-1,4,4a,5,5a,6-hexahydrocyclopropa[f]indazol-3-yl)-1H-benzo[d]imidazol-5-yl)-2-(tetrahydro-2H-pyran-4-yl)acetamide] | 6
C[C@@H](C(=O)N(C)c1cc(Br)c2[nH]c(-c3n[nH]c4c3C[C@@H]3C[C@]3(C)C4)nc2c1)N1CCOCC1 [Example 37, (S)—N-(7-bromo-2-((4aS,5aR)-5a-methyl-1,4,4a,5,5a,6-hexahydrocyclopropa[f]indazol-3-yl)-1H-benzo[d]imidazol-5-yl)-N-methyl-2-morpholinopropanamide] | 9
C[C@@H](C(=O)N(C)c1cc(C#N)c2[nH]c(-c3n[nH]c4c3C[C@@H]3C[C@]3(C)C4)nc2c1)N1CCOCC1 [Example 38, (S)—N-(7-cyano-2-((4aS,5aR)-5a-methyl-1,4,4a,5,5a,6-hexahydrocyclopropa[f]indazol-3-yl)-1H-benzo[d]imidazol-5-yl)-N-methyl-2-morpholinopropanamide] | 7
COc1cc(N(C)C(=O)[C@H](C)N2CCOCC2)cc2nc(-c3n[nH]c4c3C[C@@H]3C[C@]3(C)C4)[nH]c12 [Example 40, (S)—N-(7-methoxy-2-((4aS,5aR)-5a-methyl-1,4,4a,5,5a,6-hexahydrocyclopropa[f]indazol-3-yl)-1H-benzo[d]imidazol-5-yl)-N-methyl-2-morpholinopropanamide] | 19
C[C@@H](C(=O)N(C)c1cc(C(F)(F)F)c2[nH]c(-c3n[nH]c4c3C[C@@H]3C[C@]3(C)C4)nc2c1)N1CCOCC1 [Example 41, (S)—N-methyl-N-(2-((4aS,5aR)-5a-methyl-1,4,4a,5,5a,6-hexahydrocyclopropa[f]indazol-3-yl)-7-(trifluoromethyl)-1H-benzo[d]imidazol-5-yl)-2-morpholinopropanamide] | 34
COCc1cc(N(C)C(=O)[C@H](C)N2CCOCC2)cc2nc(-c3n[nH]c4c3C[C@@H]3C[C@]3(C)C4)[nH]c12 [Example 42, (S)—N-(7-(methoxymethyl)-2-((4aS,5aR)-5a-methyl-1,4,4a,5,5a,6-hexahydrocyclopropa[f]indazol-3-yl)-1H-benzo[d]imidazol-5-yl)-N-methyl-2-morpholinopropanamide] | 38
C[C@@H](C(=O)N(C)c1cc(Cl)c2[nH]c(-c3n[nH]c4c3C[C@@H]3C[C@]3(C)C4)nc2c1)N1CCOCC1 [Example 43, (S)—N-(7-chloro-2-((4aS,5aR)-5a-methyl-1,4,4a,5,5a,6-hexahydrocyclopropa[f]indazol-3-yl)-1H-benzo[d]imidazol-5-yl)-N-methyl-2-morpholinopropanamide] | 16
CCc1cc(N(C)C(=O)[C@H](C)N2CCOCC2)cc2nc(-c3n[nH]c4c3C[C@@H]3C[C@]3(C)C4)[nH]c12 [Example 44, (S)—N-(7-ethyl-2-((4aS,5aR)-5a-methyl-1,4,4a,5,5a,6-hexahydrocyclopropa[f]indazol-3-yl)-1H-benzo[d]imidazol-5-yl)-N-methyl-2-morpholinopropanamide] | 28
C[C@@H](C(=O)N(C)c1cc(CO)c2[nH]c(-c3n[nH]c4c3C[C@@H]3C[C@]3(C)C4)nc2c1)N1CCOCC1 [Example 45, (S)—N-(7-(hydroxymethyl)-2-((4aS,5aR)-5a-methyl-1,4,4a,5,5a,6-hexahydrocyclopropa[f]indazol-3-yl)-1H-benzo[d]imidazol-5-yl)-N-methyl-2-morpholinopropanamide] | 17
Cc1c(F)c(N(C)C(=O)[C@H](C)N2CCOCC2)cc2nc(-c3n[nH]c4c3C[C@@H]3C[C@]3(C)C4)[nH]c12 [Example 47, (S)—N-(6-fluoro-7-methyl-2-((4aS,5aR)-5a-methyl-1,4,4a,5,5a,6-hexahydrocyclopropa[f]indazol-3-yl)-1H-benzo[d]imidazol-5-yl)-N-methyl-2-morpholinopropanamide] | 29
C[C@@H](C(=O)N(C)c1cc(C(F)F)c2[nH]c(-c3n[nH]c4c3C[C@@H]3C[C@]3(C)C4)nc2c1)N1CCOCC1 [Example 48, (S)—N-(7-(difluoromethyl)-2-((4aS,5aR)-5a-methyl-1,4,4a,5,5a,6-hexahydrocyclopropa[f]indazol-3-yl)-1H-benzo[d]imidazol-5-yl)-N-methyl-2-morpholinopropanamide] | 17
COCCOc1cc2[nH]c(-c3n[nH]c4c3C[C@@H]3C[C@]3(C)C4)nc2cc1N(C)C(=O)[C@H](C)N1CCOCC1 [Example 49, (S)—N-(6-(2-methoxyethoxy)-2-((4aS,5aR)-5a-methyl-1,4,4a,5,5a,6-hexahydrocyclopropa[f]indazol-3-yl)-1H-benzo[d]imidazol-5-yl)-N-methyl-2-morpholinopropanamide] | 12
Cc1cc(N(C)C(=O)[C@H](C)N2CCOCC2)cc2nc(-c3n[nH]c4c3C[C@@H]3C[C@]3(C)C4)[nH]c12 [Example 50, (S)—N-methyl-N-(7-methyl-2-((4aS,5aR)-5a-methyl-1,4,4a,5,5a,6-hexahydrocyclopropa[f]indazol-3-yl)-1H-benzo[d]imidazol-5-yl)-2-morpholinopropanamide] | 16
Cc1cc(N(C)C(=O)[C@H](C)N2CCOCC2)cc2nc(-c3n[nH]c4c3C[C@@H]3C(F)(F)[C@]3(C)C4)[nH]c12 [Example 51, (S)—N-(2-((4aS,5aR)-5,5-difluoro-5a-methyl-1,4,4a,5,5a,6-hexahydrocyclopropa[f]indazol-3-yl)-7-methyl-1H-benzo[d]imidazol-5-yl)-N-methyl-2-morpholinopropanamide] | 2
Cc1cc2[nH]c(-c3n[nH]c4c3C[C@@H]3C[C@]3(C)C4)nc2cc1NC(=O)[C@H](C)N1CCOCC1 [Example 52, (S)—N-(6-methyl-2-((4aS,5aR)-5a-methyl-1,4,4a,5,5a,6-hexahydrocyclopropa[f]indazol-3-yl)-1H-benzo[d]imidazol-5-yl)-2-morpholinopropanamide] | 121
CN(C(=O)CC1CCOCC1)c1cc2nc(-c3n[nH]c4c3C[C@@H]3C[C@]3(C)C4)[nH]c2cc1C#N [Example 54, N-(6-cyano-2-((4aS,5aR)-5a-methyl-1,4,4a,5,5a,6-hexahydrocyclopropa[f]indazol-3-yl)-1H-benzo[d]imidazol-5-yl)-N-methyl-2-(tetrahydro-2H-pyran-4-yl)acetamide] | 272
C[C@@H](C(=O)N(C)c1cc(C#N)c2[nH]c(-c3n[nH]c4c3C[C@@H]3C[C@]3(C)C4)nc2c1)C1CCOCC1 [Example 55, (R)—N-(7-cyano-2-((4aS,5aR)-5a-methyl-1,4,4a,5,5a,6-hexahydrocyclopropa[f]indazol-3-yl)-1H-benzo[d]imidazol-5-yl)-N-methyl-2-(tetrahydro-2H-pyran-4-yl)propanamide] | 5
